This is an account of results in patent US20240245658A1, “TAAR1 AND SEROTONIN MODULATORS, AND PHARMACEUTICAL COMPOSITIONS, AND METHODS OF USE THEREOF” (Sunovion Pharmaceuticals Inc., priority 2021, published 2024).

Where two headings read alike, the source gives them in different places. Bounds are passed on as bounds.

Assay type in all cases: cell-based
Experiment [1] concerns the target T1, human TAAR1 receptors (Homo sapiens, UniProt Q96RJ0).
T1 construct: host or cells: CHO-K1
T1 sequence (Q96RJ0 1-339): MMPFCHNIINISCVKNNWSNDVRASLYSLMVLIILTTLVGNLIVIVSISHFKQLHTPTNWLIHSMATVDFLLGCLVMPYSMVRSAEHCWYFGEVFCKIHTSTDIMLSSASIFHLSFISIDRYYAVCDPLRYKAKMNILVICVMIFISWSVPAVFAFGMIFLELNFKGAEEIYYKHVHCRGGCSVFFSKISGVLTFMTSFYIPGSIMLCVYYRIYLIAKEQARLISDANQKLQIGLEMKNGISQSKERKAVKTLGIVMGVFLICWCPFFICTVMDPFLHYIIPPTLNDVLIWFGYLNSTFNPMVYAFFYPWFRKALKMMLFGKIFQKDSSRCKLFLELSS
Nature of the experiment: TAAR1 Agonism Assay: cAMP HTRF assay for Gs coupled receptor TAAR1 (Euroscreen FAST-0987C). The note with it: CHO-K1 cells expressing human TAAR1, cAMP HTRF. How it is done: Dose response curves were performed in parallel with the reference compound, tyramine.
For the TAAR1 agonist test (performed in a 384 well plate): 5 μl of cells (about 3,000 cells) were mixed with 5 μl of the test compound diluted in assay buffer and then incubated for about 30 minutes at about room temperature. After addition of the lysis buffer containing cAMP-d2 and anti-cAMP cryptate detection reagents, plates were incubated for about a 1-hour incubation at about room temperature, and fluorescence ratios were measured according to the manufacturer specifications, with the HTRF (Homogeneous Time Resolved Fluorescence) kit (cAMP Gs dynamic kit, Cisbio Bioassays, 62AM4PEJ).
(§1) Compounds were tested at the following nanomolar concentrations, in duplicate: 0.3 nM, 1 nM, 3 nM, 10 nM, 30 nM, 100 nM, 300 nM, 1,000 nM, 3,000 nM, and 10,000 nM.

For experiment [2], the target named is T2, human 5-HT2A receptor (Homo sapiens, UniProt P28223).
T2 construct: host or cells: CHO-K1
T2 sequence (P28223 whole entry): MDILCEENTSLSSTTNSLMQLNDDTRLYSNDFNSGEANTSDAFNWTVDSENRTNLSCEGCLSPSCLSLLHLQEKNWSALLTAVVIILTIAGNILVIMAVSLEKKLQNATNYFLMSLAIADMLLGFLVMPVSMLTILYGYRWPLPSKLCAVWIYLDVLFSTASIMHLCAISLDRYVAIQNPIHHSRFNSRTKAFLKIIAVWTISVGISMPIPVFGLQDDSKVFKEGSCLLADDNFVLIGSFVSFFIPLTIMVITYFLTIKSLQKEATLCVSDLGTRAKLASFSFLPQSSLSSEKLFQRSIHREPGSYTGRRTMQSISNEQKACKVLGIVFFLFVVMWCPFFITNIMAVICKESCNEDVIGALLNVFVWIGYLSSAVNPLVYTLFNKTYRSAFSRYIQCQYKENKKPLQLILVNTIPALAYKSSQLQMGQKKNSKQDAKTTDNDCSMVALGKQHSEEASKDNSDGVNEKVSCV
Kind of experiment: 5HT2A Antagonism Assay (Euroscreen FAST-05051), IP-One HTRF. The method, then: 5HT2A Antagonism Assay Protocol (Euroscreen FAST-05051)
CHO-K1 cells expressing the human 5-HT2A receptor grown to mid-log phase in culture media without antibiotics, were detached with PBS-EDTA, centrifuged, and resuspended in the IP-One Gq kit (Cisbio Bioassays, 62IPAPEC) stimulation buffer.
For antagonist testing in a 384 well plate: 5 μl of cells (20,000 cells) were mixed with 5 μl of a mix of test compound and reference agonist (for a final assay concentration corresponding to its EC80) diluted in stimulation buffer. The plate was incubated for 60 minutes at 37° C. in a humidified atmosphere of 95% air with 5% CO2, then 5 μL of IP1-d2 and anti-IP1 cryptate detection reagents were added to each well, the plates were incubated for about 1 hour at about room temperature. Fluorescence ratios are measured according to the manufacturer's specification (IP-One Gq kit (Cisbio Bioassays, 62IPAPEC).
Dose response curves were performed in parallel with reference compounds (e.g., α-methyl-5-HT. Compounds were tested at the following nanomolar concentrations, in duplicate: 0.3 nM, 1 nM, 3 nM, 10 nM, 30 nM, 100 nM, 300 nM, 1,000 nM, 3,000 nM, and 10,000 nM
On the technique in general: In TR-FRET formats the signal depends on donor and acceptor labels being close together.

The target of experiment [3] is T3, human 5-HT7 receptor (Homo sapiens, UniProt P34969).
T3 construct: host or cells: CHO-K1
T3 sequence (P34969 whole entry): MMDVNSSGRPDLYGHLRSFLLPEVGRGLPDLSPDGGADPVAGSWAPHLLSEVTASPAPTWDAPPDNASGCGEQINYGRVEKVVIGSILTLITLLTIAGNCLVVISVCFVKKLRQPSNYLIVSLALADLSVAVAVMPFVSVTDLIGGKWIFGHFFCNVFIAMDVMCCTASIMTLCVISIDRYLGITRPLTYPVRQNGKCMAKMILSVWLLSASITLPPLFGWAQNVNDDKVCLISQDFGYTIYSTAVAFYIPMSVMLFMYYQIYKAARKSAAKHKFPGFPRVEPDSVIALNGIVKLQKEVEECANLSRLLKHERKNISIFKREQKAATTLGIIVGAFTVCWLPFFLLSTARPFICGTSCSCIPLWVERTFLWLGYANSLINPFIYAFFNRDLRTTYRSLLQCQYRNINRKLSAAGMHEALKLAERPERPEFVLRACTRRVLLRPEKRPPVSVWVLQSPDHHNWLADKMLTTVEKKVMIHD
Kind of experiment: 5HT7 Antagonism Assay (Euroscreen FAST-0499C), cAMP HTRF. The conditions noted are these: CHO-K1 cells expressing human 5-HT7, reference agonist at EC80, cAMP HTRF. The method, then:
5HT7 Antagonism Assay Protocol (Euroscreen FAST-0499C)
CHO-K1 cells expressing the human 5-HT7 receptor, grown prior to the test in media without antibiotic, were detached by gentle flushing with PBS-EDTA (5 mM EDTA), recovered by centrifugation and resuspended in assay buffer (Krebs-Ringer HEPES buffer: 5 mM KCl, 1.25 mM MgSO4, 124 mM NaCl, 25 mM HEPES, 13.3 mM Glucose, 1.25 mM KH2PO4, 1.45 mM CaCl2), 0.5 g/l BSA, supplemented with 1 mM IBMX).
Dose response curves were performed in parallel with reference compounds (e.g., 5-carboxamidotryptamine (5-CT)).
For antagonist testing in a 384 well plate: 5 μl of cells (3000 cells) were mixed with 5 μl of a mix of test compound and reference agonist (for a final assay concentration corresponding to its EC80) diluted in assay buffer. The plates were then incubated for about 30 minutes at about room temperature. After addition of the lysis buffer containing cAMP-d2 and anti-cAMP cryptate detection reagents, plates were incubated for about 1 hour at about room temperature, and fluorescence ratios were measured according to the manufacturer's specifications (HTRF kit: cAMP Gs dynamic kit, Cisbio Bioassays, 62AM4PEJ).
as §1

Where [4] appears, read: read-out: 5-HT2A (IC50), CHO-K1 cells expressing human 5-HT2A, reference agonist at EC80, IP-One.
Where [5] appears, read: 5-HT2A (IC50), CHO-K1 cells expressing human 5-HT2A, reference agonist at EC80, IP-One.

Broadly, the EC50 is the midpoint of the concentration-response curve. A low value points to higher potency in that assay. One may read the IC50 as the midpoint of a concentration-inhibition curve. As to `CNCC1Cc2c(F)cccc2Oc2ccccc21` (single isomer, unassigned) [Compound 83, (S*)-1-(1-fluoro-10,11-dihydrodibenzo[b,f]oxepin-10-yl)-N-methylmethanamine], the EC50 in experiment [1] is > 10000 nM. For the same compound, the IC50 in experiment [2] (setting [4]) was < 1000 nM; in experiment [3] it was 1000 to 10000 nM.

Turning to `C[C@@H]1c2ccccc2Oc2cccnc2[C@@H]1CN` (stereo in doubt) [Compound 112, ((10S*,11S*)-10-methyl-10,11-dihydrobenzo[6,7]oxepino[3,2-b]pyridin-11-yl)methanamine], the EC50 in experiment [1] was < 1000 nM. In addition, the IC50 in experiment [2] (setting [5]) was > 10000 nM; in experiment [3] it was ≥ 10000 nM.

For `CNCC1Cc2ccc(C)cc2Oc2cccnc21` (single isomer, unassigned) [Compound 135, (R*)—N-methyl-1-(7-methyl-10,11-dihydrobenzo[6,7]oxepino[3,2-b]pyridin-11-yl)methanamine], the half-maximal effective concentration (EC50) in experiment [1] is < 1000 nM. In addition, the IC50 in experiment [2] (setting [4]) was < 1000 nM; in experiment [3], 1000 to 10000 nM.

Take `NCC1Cc2c(F)cccc2Oc2ccccc21` (single isomer, unassigned) [Compound 80, (R*)-(1-fluoro-10,11-dihydrodibenzo[b,f]oxepin-10-yl)methanamine]: the EC50 in experiment [1] was < 1000 nM. For the same compound, the IC50 was < 1000 nM in experiment [2] (setting [5]) and ≥ 10000 nM in experiment [3].

As to `CNCC1Cc2ncccc2Oc2ccccc21` (single isomer, unassigned) [Compound 31, (R*)-1-(10,11-dihydrobenzo[6,7]oxepino[3,2-b]pyridin-10-yl)-N-methylmethanamine], the EC50 in experiment [1] was > 10000 nM. Further, the values for the IC50 in experiment [2] (setting [5]) and in experiment [3] were < 1000 nM and ≥ 10000 nM, respectively.

In the case of `CNCC1Cc2ncccc2Oc2ccc(F)cc21` (single isomer, unassigned) [Compound 166, (S*)-(8-fluoro-10,11-dihydrobenzo[6,7]oxepino[3,2-b]pyridin-10-yl)-N-methylmethanamine], the EC50 in experiment [1] was < 1000 nM. Also, the results for the IC50 in experiment [2] (setting [4]) and in experiment [3] were < 1000 nM and 1000 to 10000 nM, respectively.

The compound `NCC1Cc2ncccc2Oc2ccc(F)cc21` (single isomer, unassigned) [Compound 163, (R*)-(8-fluoro-10,11-dihydrobenzo[6,7]oxepino[3,2-b]pyridin-10-yl)methanamine] came in with an EC50 in experiment [1] of 1000 to 10000 nM. Further, the results for the IC50 in experiment [2] (setting [5]) and in experiment [3] were 1000 to 10000 nM and ≥ 10000 nM, respectively.

Turning to `CNCC1Cc2cc(Cl)ccc2Oc2cccnc21` (single isomer, unassigned) [Compound 123, (R*)-(8-chloro-10,11-dihydrobenzo[6,7]oxepino[3,2-b]pyridin-11-yl)-N-methylmethanamine], the EC50 in experiment [1] was < 1000 nM. Besides, the IC50 in experiment [2] (setting [4]) and in experiment [3] was < 1000 nM in each case.

For `CNCC1Cc2ncccc2Oc2ccccc21` (single isomer, unassigned) [Compound 32, (S*)-1-(10,11-dihydrobenzo[6,7]oxepino[3,2-b]pyridin-10-yl)-N-methylmethanamine], in experiment [1], the EC50 was < 1000 nM. Also, the IC50 in experiment [2] (setting [4]) is < 1000 nM; in experiment [3], ≥ 10000 nM.

Turning to `NCC1Cc2cccc(F)c2Oc2ccccc21` (single isomer, unassigned) [Compound 84, (R*)-(4-fluoro-10,11-dihydrodibenzo[b,f]oxepin-10-yl)methanamine], the EC50 in experiment [1] is < 1000 nM. Moreover, the values for the IC50 in experiment [2] (setting [5]) and in experiment [3] were > 10000 nM and ≥ 10000 nM, respectively.

`CNCC1Cc2ccc(F)cc2Oc2ccccc21` (single isomer, unassigned) [Compound 91, (S*)-(3-fluoro-10,11-dihydrodibenzo[b,f]oxepin-10-yl)-N-methylmethanamine]: in experiment [1], the EC50 was < 1000 nM. The IC50 in experiment [2] (setting [4]) and in experiment [3] was < 1000 nM throughout.

Turning to `CNCC1Cc2ccccc2Oc2cccc(F)c21` (single isomer, unassigned) [Compound 107, (S*)-(9-fluoro-10,11-dihydrodibenzo[b,f]oxepin-10-yl)-N-methylmethanamine], the EC50 in experiment [1] is > 10000 nM. Also, the IC50 in experiment [2] (setting [5]) was 1000 to 10000 nM; in experiment [3], ≥ 10000 nM.

Regarding `CNCC1Cc2cc(F)ccc2Oc2ccccc21` (single isomer, unassigned) [Compound 98, (R*)-(2-fluoro-10,11-dihydrodibenzo[b,f]oxepin-10-yl)-N-methylmethanamine], the EC50 in experiment [1] is < 1000 nM. Besides, the IC50 is < 1000 nM in experiment [2] (setting [5]) and 1000 to 10000 nM in experiment [3].

In the case of `NCC1Oc2ccccc2Oc2cnccc21` (single isomer, unassigned) [Compound 50, (S*)-(5H-benzo[2,3][1,4]dioxepino[5,6-c]pyridin-5-yl)methanamine], the concentration giving a half-maximal response (EC50) in experiment [1] was < 1000 nM. In addition, the IC50 in experiment [2] (setting [4]) was > 10000 nM; in experiment [3], ≥ 10000 nM.

On to `CNC[C@@H]1Oc2ccccc2Oc2ccncc21` (single isomer, unassigned) [Compound 55, (R*)-1-(11H-benzo[2,3][1,4]dioxepino[6,5-c]pyridin-11-yl)-N-methylmethanamine], for which, in experiment [1], the EC50 was > 10000 nM. In addition, the IC50 in experiment [2] (CHO-K1 cells expressing human 5-HT2A, reference agonist at EC80, IP-One, read-out: 5-HT2A (IC50)) is > 10000 nM; in experiment [3], ≥ 10000 nM.

For the compound `Cc1ccc2c(n1)C(CN)Cc1ccccc1O2` (single isomer, unassigned) [Compound 149, (R*)-(2-methyl-10,11-dihydrobenzo[6,7]oxepino[3,2-b]pyridin-11-yl)methanamine], the EC50 in experiment [1] is < 1000 nM. Also, the IC50 in experiment [2] (setting [5]) was < 1000 nM; in experiment [3] it was ≥ 10000 nM.

`C[C@H]1c2ccccc2Oc2cccnc2[C@@H]1CN` (stereo in doubt) [Compound 115, ((10R*,11S*)-10-methyl-10,11-dihydrobenzo[6,7]oxepino[3,2-b]pyridin-11-yl)methanamine]: the EC50 in experiment [1] lay within 1000 to 10000 nM. Further, the IC50 in experiment [2] (setting [5]) was > 10000 nM; in experiment [3], ≥ 10000 nM.

For `CNCC1Cc2ccc(F)cc2Oc2ccccc21` (single isomer, unassigned) [Compound 90, (R*)-(3-fluoro-10,11-dihydrodibenzo[b,f]oxepin-10-yl)-N-methylmethanamine], the EC50 in experiment [1] is > 10000 nM. The IC50 is < 1000 nM in experiment [2] (setting [5]) and 1000 to 10000 nM in experiment [3].

For `NCC1Cc2ncccc2Oc2cc(Cl)ccc21` (single isomer, unassigned) [Compound 172, (S*)-(7-chloro-10,11-dihydrobenzo[6,7]oxepino[3,2-b]pyridin-10-yl)methanamine], in experiment [1], the EC50 was < 1000 nM. Also, the IC50 in experiment [2] (setting [4]) was < 1000 nM; in experiment [3], ≥ 10000 nM.

In the case of `CNCC1Cc2ccc(C)cc2Oc2cccnc21` (single isomer, unassigned) [Compound 134, (S*)—N-methyl-1-(7-methyl-10,11-dihydrobenzo[6,7]-oxepino[3,2-b]pyridin-11-yl)methanamine], in experiment [1], the EC50 was < 1000 nM. In addition, the IC50 in experiment [2] (setting [5]) is < 1000 nM; in experiment [3], 1000 to 10000 nM.
